This passage reports IC50 results from PubChem BioAssay AID504489 (Sanford-Burnham Center for Chemical Genomics, 2011).

SMILES strings stand for the structures. Active and inactive are the calls of the source.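 How the source made its calls: active means IC50 at or below 20 µM; inactive means the rest.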

As usually defined, the IC50 is the concentration at which inhibition is half-maximal.

The subject of the assay is 697 B-cell NF-kB luciferase, PMA/ionomycin, luminescence 16 h. Nature of the assay: NF-kB reporter signal decrease in 697 cells – B- and T-cell screen hits, luminescence, SAR follow-up (AID 504489).
On to `Cc1ccc2cccc(N)c2n1`, for which the IC50 is > 79000 nM (inactive).

As for `COc1cc(NS(=O)(=O)c2ccccc2)c2ncccc2c1`, the half-maximal inhibitory concentration (IC50) was 1290 nM.

With `Cc1ccc(S(=O)(=O)Nc2cccc3cccnc23)cc1`, the IC50 is 2210 nM.

In the case of `O=S(=O)(Nc1cccc2cccnc12)c1ccccc1`, the IC50 was 1400 nM.

Regarding `COc1cc(N)c2ncccc2c1`, the IC50 is > 79000 nM (inactive).

On to `Nc1cccc2cccnc12`, for which the IC50 was > 79000 nM (inactive).

As to `Cc1ccc2cccc(NS(=O)(=O)c3ccccc3)c2n1`, the IC50 is > 79000 nM (inactive).

Take `Cc1ccc(S(=O)(=O)Nc2cccc3ccc(C)nc23)cc1`: the 50% inhibitory concentration (IC50) is 2740 nM.

Regarding `COc1cc(NS(=O)(=O)c2ccc(C)cc2)c2ncccc2c1`, the 50% inhibitory concentration (IC50) was 2580 nM.
